Measured values from ChEMBL document CHEMBL6177968, “Development of sulfamoylbenzamide-based capsid assembly modulators for hepatitis B virus capsid assembly” (Eur J Med Chem, 2025).
Active and inactive are the calls of the source. The rule behind the calls is not given here.

Columns and labels:
[1] = Cytotoxicity in human HepG2.2.15 cells assessed as reduction in cell viability; format: toxicity, cell-based, HepG2 2.2.15
[2] = Selectivity index, ratio of CC50 for cytotoxicity in human HepG2.2.15 cells assessed as reduction in cell viability to EC50 for antiviral activity against HBV in human HepG2.2.15 cells assessed as reduction in viral replication; format: toxicity, cell-based; conditions: read-out: Ratio CC50/EC50
[3] = Metabolic stability in rat liver microsomes assessed as compound remaining measured after 30 mins; format: ADME, Microsome; conditions: read-out: Stability
[4] = Stability in mouse plasma assessed as compound remaining incubated for 4 hrs; format: ADME, cell-free; conditions: read-out: Stability
[5] = Stability in human plasma assessed as compound remaining incubated for 4 hrs; format: ADME, cell-free; conditions: read-out: Stability
[6] = Plasma protein binding in human; format: ADME, cell-free; conditions: read-out: PPB (converted)
[7] = Cytotoxicity in African green monkey Vero cells; format: toxicity, cell-based, Chlorocebus sabaeus
[8] = Cytotoxicity in HFL1 cells; format: toxicity, cell-based; conditions: human
[9] = Cytotoxicity in mouse L929 cells; format: toxicity, cell-based
[10] = Cytotoxicity in mouse NIH3T3 cells; format: toxicity, cell-based
[11] = Cytotoxicity in CHO-K1 cells; format: toxicity, cell-based, Cricetulus griseus; conditions: Chinese hamster
Cytochrome P450 1A2 = molecular target: T1, Cytochrome P450 1A2 (Homo sapiens, UniProt P05177); assay: Inhibition of CYP1A2 in human liver microsome; format: ADME, microsomes
T1 sequence (P05177 whole entry): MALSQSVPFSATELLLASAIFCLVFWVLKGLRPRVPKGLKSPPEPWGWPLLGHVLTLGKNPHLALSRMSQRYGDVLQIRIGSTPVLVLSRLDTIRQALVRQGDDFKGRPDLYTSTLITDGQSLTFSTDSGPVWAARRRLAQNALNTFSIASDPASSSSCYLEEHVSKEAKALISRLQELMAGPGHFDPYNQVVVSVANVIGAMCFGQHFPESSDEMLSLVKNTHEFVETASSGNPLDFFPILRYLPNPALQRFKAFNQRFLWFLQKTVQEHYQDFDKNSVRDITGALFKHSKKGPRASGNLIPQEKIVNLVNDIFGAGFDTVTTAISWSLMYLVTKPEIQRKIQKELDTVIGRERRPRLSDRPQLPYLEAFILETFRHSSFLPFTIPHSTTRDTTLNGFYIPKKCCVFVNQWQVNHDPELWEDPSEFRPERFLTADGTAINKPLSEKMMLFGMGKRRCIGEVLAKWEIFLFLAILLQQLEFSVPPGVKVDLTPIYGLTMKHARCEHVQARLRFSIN

Cytochrome P450 2C19 = Cytochrome P450 2C19 (Homo sapiens, UniProt P33261); assay: Inhibition of CYP2C19 in human liver microsome; format: ADME, microsomes
Sequence of Cytochrome P450 2C19 (P33261 whole entry): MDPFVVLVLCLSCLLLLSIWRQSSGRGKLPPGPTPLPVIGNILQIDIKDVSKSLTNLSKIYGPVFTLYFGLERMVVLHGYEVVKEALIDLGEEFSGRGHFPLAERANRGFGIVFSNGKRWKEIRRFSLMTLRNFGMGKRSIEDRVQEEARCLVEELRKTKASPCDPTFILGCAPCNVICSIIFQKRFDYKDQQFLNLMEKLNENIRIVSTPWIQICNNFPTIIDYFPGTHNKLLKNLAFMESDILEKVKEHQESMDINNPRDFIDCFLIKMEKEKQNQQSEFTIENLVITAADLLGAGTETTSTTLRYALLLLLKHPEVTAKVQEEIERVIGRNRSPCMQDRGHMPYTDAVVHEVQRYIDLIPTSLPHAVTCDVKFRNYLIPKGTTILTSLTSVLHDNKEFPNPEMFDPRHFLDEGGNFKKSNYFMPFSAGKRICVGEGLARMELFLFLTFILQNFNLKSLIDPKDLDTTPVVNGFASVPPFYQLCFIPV

Cytochrome P450 2D6 = Cytochrome P450 2D6 (Homo sapiens, UniProt P10635); assay: Inhibition of CYP2D6 in human liver microsome; format: ADME, microsomes
Sequence of Cytochrome P450 2D6 (P10635 whole entry): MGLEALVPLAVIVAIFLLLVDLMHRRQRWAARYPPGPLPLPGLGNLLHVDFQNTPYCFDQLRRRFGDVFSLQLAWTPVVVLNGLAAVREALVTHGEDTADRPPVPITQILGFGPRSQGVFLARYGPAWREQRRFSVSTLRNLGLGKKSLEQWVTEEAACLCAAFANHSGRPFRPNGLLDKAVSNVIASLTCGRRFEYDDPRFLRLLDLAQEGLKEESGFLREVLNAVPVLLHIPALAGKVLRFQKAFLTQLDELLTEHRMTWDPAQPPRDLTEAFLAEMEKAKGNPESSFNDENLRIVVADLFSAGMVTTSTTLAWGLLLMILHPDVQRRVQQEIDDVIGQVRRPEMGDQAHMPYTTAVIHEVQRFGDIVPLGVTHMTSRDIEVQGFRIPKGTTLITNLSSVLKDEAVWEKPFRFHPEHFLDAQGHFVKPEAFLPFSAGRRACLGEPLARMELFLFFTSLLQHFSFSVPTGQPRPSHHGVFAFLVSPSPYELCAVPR

Cytochrome P450 3A4 = Cytochrome P450 3A4 (Homo sapiens, UniProt P08684); assay: Inhibition of CYP3A4 in human liver microsome; format: ADME, microsomes
Sequence of Cytochrome P450 3A4 (P08684 whole entry): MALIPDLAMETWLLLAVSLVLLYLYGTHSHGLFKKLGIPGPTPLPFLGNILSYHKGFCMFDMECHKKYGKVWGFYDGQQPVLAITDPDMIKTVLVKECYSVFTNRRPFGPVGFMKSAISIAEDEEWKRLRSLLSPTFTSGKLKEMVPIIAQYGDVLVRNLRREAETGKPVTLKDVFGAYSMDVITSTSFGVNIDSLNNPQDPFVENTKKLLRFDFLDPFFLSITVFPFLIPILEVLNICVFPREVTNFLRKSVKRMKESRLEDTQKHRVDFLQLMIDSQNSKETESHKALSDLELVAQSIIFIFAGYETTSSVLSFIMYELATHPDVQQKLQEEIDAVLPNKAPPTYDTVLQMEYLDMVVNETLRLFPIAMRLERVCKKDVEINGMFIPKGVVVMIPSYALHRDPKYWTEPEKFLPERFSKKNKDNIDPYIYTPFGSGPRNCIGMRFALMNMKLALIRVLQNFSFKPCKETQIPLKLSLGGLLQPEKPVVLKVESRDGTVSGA

[12] = molecular target: Voltage-gated inwardly rectifying potassium channel KCNH2 (Homo sapiens, UniProt Q12809); assay: Inhibition of human ERG; format: toxicity
Sequence of Voltage-gated inwardly rectifying potassium channel KCNH2 (Q12809 whole entry): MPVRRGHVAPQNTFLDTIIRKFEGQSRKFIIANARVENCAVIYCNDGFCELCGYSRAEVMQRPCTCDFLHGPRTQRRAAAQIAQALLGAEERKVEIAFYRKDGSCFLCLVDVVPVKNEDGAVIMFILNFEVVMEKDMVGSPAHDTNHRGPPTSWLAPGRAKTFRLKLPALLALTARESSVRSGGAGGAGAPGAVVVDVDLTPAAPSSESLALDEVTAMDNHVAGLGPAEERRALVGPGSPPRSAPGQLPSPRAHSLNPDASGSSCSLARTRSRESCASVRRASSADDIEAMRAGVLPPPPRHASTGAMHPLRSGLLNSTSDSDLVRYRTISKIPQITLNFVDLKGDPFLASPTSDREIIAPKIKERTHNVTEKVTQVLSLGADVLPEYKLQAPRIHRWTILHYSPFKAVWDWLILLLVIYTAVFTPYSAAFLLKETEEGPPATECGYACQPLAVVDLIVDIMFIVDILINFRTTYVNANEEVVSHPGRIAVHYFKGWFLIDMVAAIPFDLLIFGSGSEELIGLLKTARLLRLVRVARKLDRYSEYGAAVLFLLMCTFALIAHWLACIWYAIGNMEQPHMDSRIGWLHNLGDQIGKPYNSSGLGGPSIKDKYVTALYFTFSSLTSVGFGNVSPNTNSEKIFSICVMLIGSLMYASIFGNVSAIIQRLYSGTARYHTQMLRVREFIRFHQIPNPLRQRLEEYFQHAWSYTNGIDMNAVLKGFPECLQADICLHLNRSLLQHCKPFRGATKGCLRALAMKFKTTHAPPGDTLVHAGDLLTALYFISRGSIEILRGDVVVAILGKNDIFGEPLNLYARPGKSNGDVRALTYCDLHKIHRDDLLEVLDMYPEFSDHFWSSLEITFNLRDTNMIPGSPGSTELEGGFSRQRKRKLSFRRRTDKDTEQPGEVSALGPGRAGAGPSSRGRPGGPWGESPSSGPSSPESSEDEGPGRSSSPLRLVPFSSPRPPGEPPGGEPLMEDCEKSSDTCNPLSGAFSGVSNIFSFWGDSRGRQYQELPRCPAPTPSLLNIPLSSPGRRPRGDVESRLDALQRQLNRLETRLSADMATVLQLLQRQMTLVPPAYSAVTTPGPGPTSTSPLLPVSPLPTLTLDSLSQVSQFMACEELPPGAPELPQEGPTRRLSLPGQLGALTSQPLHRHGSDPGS

Hepatitis B virus [13] = assay: Antiviral activity against HBV in human HepG2 cells expressing NTCP assessed as reduction in viral replication; format: functional, organism-based
Hepatitis B virus [14] = assay: Antiviral activity against HBV in human HepaRG cells assessed as reduction in viral replication; format: functional, organism-based
[15] = Cytotoxicity in human HepG2-hNTCP cells assessed as reduction in cell viability; format: toxicity, cell-based
[16] = Cytotoxicity in human HepaRG cells assessed as reduction in cell viability; format: toxicity, cell-based
[17] = Selectivity index, ratio of CC50 for cytotoxicity in human HepG2-hNTCP cells assessed as reduction in cell viability to EC50 for antiviral activity against HBV in human HepG2-hNTCP cells assessed as reduction in viral replication; format: toxicity, cell-based; conditions: read-out: Ratio CC50/EC50
[18] = Selectivity index, ratio of CC50 for cytotoxicity in human HepaRG cells assessed as reduction in cell viability to EC50 for antiviral activity against HBV in human HepaRG cells assessed as reduction in viral replication; format: toxicity, cell-based; conditions: read-out: Ratio CC50/EC50
[19] = Half life in male mouse at 5 mg/kg, iv; format: ADME, organism-based; conditions: in vivo
[20] = AUClast in male mouse at 5 mg/kg, iv; format: ADME, organism-based; conditions: in vivo
[21] = Volume of distribution at steady state in male mouse at 5 mg/kg, iv; format: ADME, organism-based; conditions: in vivo, read-out: Vdss
[22] = Half life in male mouse at 20 mg/kg, iv; format: ADME, organism-based; conditions: in vivo
[23] = AUClast in male mouse at 20 mg/kg, iv; format: ADME, organism-based; conditions: in vivo
[24] = AUC (0 to infinity) in male mouse at 20 mg/kg, iv; format: ADME, organism-based; conditions: in vivo
[25] = Volume of distribution at steady state in male mouse at 20 mg/kg, iv; format: ADME, organism-based; conditions: in vivo, read-out: Vdss
[26] = Tmax in male mouse at 5 mg/kg, po; format: ADME, organism-based; conditions: in vivo
[27] = Cmax in male mouse at 5 mg/kg, po; format: ADME, organism-based; conditions: in vivo
[28] = Half life in male mouse at 5 mg/kg, po; format: ADME, organism-based; conditions: in vivo
[29] = AUClast in male mouse at 5 mg/kg, po; format: ADME, organism-based; conditions: in vivo
[30] = Oral bioavailability in male mouse at 5 mg/kg; format: ADME, organism-based; conditions: in vivo
[31] = Tmax in male mouse at 20 mg/kg, po; format: ADME, organism-based; conditions: in vivo
[32] = AUClast in male mouse at 20 mg/kg, po; format: ADME, organism-based; conditions: in vivo
[33] = AUC (0 to infinity) in male mouse at 20 mg/kg, po; format: ADME, organism-based; conditions: in vivo
[34] = Oral bioavailability in male mouse at 20 mg/kg; format: ADME, organism-based; conditions: in vivo
Hepatitis B virus [35] = assay: Antiviral activity against HBV infected in human HepG2 cells expressing NTCP assessed as fold reduction in capsid associated viral DNA level at 1 uM incubated for 6 days by Southern blot analysis relative to control; format: functional; conditions: time 6 day
Hepatitis B virus [36] = assay: Antiviral activity against HBV infected in human HepG2 cells expressing NTCP assessed as capsid level at 1 uM incubated for 6 days by Western blot analysis (reference value: 100 %); format: functional; conditions: time 6 day
Hepatitis B virus [37] = assay: Antiviral activity against HBV infected in human HepG2 cells expressing NTCP assessed as capsid associated HBV DNA level at 1 uM incubated for 6 days by Western blot analysis (reference value: 100 %); format: functional; conditions: time 6 day
HepG2 = assay: Effect on viral ssDNA level in human HepG2 cells expressing NTCP cells infected with HBV at 1 uM incubated for 6 days by Southern blot analysis; format: functional, cell-based; conditions: time 6.0 day
[38] = molecular target: Core antigen (Hepatitis B virus) (UniProt Q03732); assay: Binding affinity to HBV core protein dimers extracted from Escherichia coli assessed as retention volume at peak of capsid assembly by size exclusion chromatography (reference value: 8.63 mL)
Sequence of Core antigen (Hepatitis B virus) (Q03732 as listed by the source): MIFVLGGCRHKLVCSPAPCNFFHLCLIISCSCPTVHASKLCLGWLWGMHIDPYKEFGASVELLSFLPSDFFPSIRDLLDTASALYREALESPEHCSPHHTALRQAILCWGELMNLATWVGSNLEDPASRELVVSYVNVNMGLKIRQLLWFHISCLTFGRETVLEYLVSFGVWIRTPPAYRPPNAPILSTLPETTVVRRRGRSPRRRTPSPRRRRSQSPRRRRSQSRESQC

[39] = molecular target: Core antigen (Hepatitis B virus) (UniProt Q03732); assay: Binding affinity to HBV core protein dimers extracted from Escherichia coli assessed as clump formation of assembled capsids by negative staining electron microscopic analysis
Hepatitis B virus [40] = assay: Antiviral activity against HBV infected in human HepG2 cells expressing NTCP assessed as intracellular HBc level at 1 uM incubated for 6 days by Western blot analysis (reference value: 100 %); format: functional; conditions: time 6 day
Hepatitis B virus [41] = assay: Antiviral activity against HBV infected in human HepG2 cells expressing NTCP assessed as ratio of capsid associated HBV DNA level at 1 uM incubated for 6 days by Western blot analysis (reference value: 100 %); format: functional; conditions: time 6 day

Nc1cc(F)c(S(=O)(=O)NC2COC2)cc1C(=O)Nc1ccc(F)c(C(F)F)c1
CC50 [1]: > 900 µM
selectivity ratio [2]: > 17500
remaining at 0.5 h [3]: 45.4%
remaining at 4 h [4]: 94.5%
remaining at 4 h [5]: 94%
fraction unbound [6]: 0.128
IC50 [7]: > 100 µM
IC50 [8]: > 100 µM
IC50 [9]: > 100 µM
IC50 [10]: > 100 µM
IC50 [11]: > 100 µM
IC50 (Cytochrome P450 1A2): > 100 µM
IC50 (Cytochrome P450 2C19): > 100 µM
IC50 (Cytochrome P450 2D6): > 100 µM
IC50 (Cytochrome P450 3A4): > 100 µM
IC50 [12]: > 10 µM
EC50 (Hepatitis B virus [13]): 0.02 µM
EC50 (Hepatitis B virus [14]): 0.1 µM
CC50 [15]: 63.2 µM
CC50 [16]: > 100 µM
selectivity ratio [17]: 3160
selectivity ratio [18]: > 100
half-life [19]: 533 min
AUC(0-t) [20]: 850 ng·h/mL
Vd [21]: 29.1 L/kg
half-life [22]: 576 min
AUC(0-t) [23]: 4610 ng·h/mL
AUC(0-inf) [24]: 5460 ng·h/mL
Vd [25]: 46.5 L/kg
Tmax [26]: 15 min
Cmax [27]: 540 ng/mL
half-life [28]: 55.2 min
AUC(0-t) [29]: 560 ng·h/mL
bioavailability [30]: 66.2%
Tmax [31]: 25.2 min
AUC(0-t) [32]: 270 ng·h/mL
AUC(0-inf) [33]: 280 ng·h/mL
bioavailability [34]: 5.89%
fold change (FC) (Hepatitis B virus [35]): 16
Activity (Hepatitis B virus [36]): 205%
Activity (Hepatitis B virus [37]): 14%
Activity (HepG2): No effect
Activity [38]: 8.62 mL
Activity [39]: Active
Activity (Hepatitis B virus [40]): 113%
Ratio (Hepatitis B virus [41]): 6%
